Biological target: KRAS G12C (Homo sapiens, UniProt P01116, G12C)
Assay: SOS1-catalyzed KRAS coupled nucleotide exchange assay (Alpha technology)
Type: biochemical
Design: His; key: A: KRAS G12C bound and modulated
Conditions: inhibition of SOS1 mediated KRAS nucleotide exchange
How it was run: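 Alpha readout of c-RAF RBD binding to GTP-bound KRAS, normalized to DMSO. Method I: 20 nM GDP-KRAS G12C/C118A with compound 5 min, then 1.25 mM GTP + 500 nM SOS-1 30 min, pH 7.4 HEPES/MgCl2 buffer, 50 nM RBD. Method II: 50 nM GDP-KRAS G12C with compound 2 h, 1 mM GTP + 500 nM SOS-1 30 min, 2.5 nM GST-RBD; RT throughout.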

Compound	KRAS-SOS1 Nucleotide Exchange
Cc1ccnc(C(C)C)c1-n1c(=O)nc(NC2CN(S(=O)(=O)c3c(F)c(F)c(F)c(F)c3C(F)(F)F)C2)c2cc(F)c(Cl)nc21 [Compound 14A, 7-chloro-6-fluoro-1-(2-isopropyl-4-methylpyridin-3-yl)-4-((1-((2,3,4,5-tetrafluoro-6-(trifluoromethyl)phenyl)sulfonyl)azetidin-3-yl)amino)pyrido[2,3-d]pyrimidin-2(1H)-one]	A
Cc1ccnc(C(C)C)c1-n1c(=O)nc(NC2CN(S(=O)(=O)c3c(F)c(F)c(F)c(F)c3C(F)(F)F)C2)c2cc(F)c(-c3c(O)cccc3F)nc21 [Compound 15A, 6-fluoro-7-(2-fluoro-6-hydroxyphenyl)-1-(2-isopropyl-4-methylpyridin-3-yl)-4-((1-((2,3,4,5-tetrafluoro-6-(trifluoromethyl)phenyl)sulfonyl)azetidin-3-yl)amino)pyrido[2,3-d]pyrimidin-2(1H)-one]	A
